The numbers were not newly measured in US12023346B1, “Compositions and methods for treating epilepsy” (POVIVA CORP, priority 2023, dated 2024), which cites them from elsewhere.

Where two headings read alike, the source gives them in different places.

As to `C=C(C)[C@@H]1CCC(C)=C[C@H]1c1c(O)cc(CCCCC)cc1O` [Cannabidiol, 2-[(1R,6R)-6-Isopropenyl-3-methylcyclohex-2-en-1-yl]-5-pentylbenzene-1,3-diol], the “Plasma concentration on Day 22 at target CBD dose, 5 hours, Mean (SD)” value reads like this: (5 mg/kg/day (N = 10)) 72.1 (49.0) ng/mL; (10 mg/kg/day (N = 8)) 288 (345) ng/mL; (20 mg/kg/day (N = 9)) 308 (321) ng/mL. Besides, the “Plasma concentration on Day 22 at target CBD dose, […], Mean (SD)” value runs as follows: (5 mg/kg/day (N = 10)) 130 (170) ng/mL; (10 mg/kg/day (N = 8)) 242 (159) ng/mL; (20 mg/kg/day (N = 9)) 380 (370) ng/mL. Further, the “Plasma concentration on Day 1 at starting CBD dose, 5 hours, Mean (SD)” value runs as follows: (5 mg/kg/day group (N = 10)) 10.0 (5.74) ng/ml; (10 mg/kg/day group (N = 8)) 11.3 (11.7) ng/ml; (20 mg/kg/day group (N = 9)) 25.3 (42.4) ng/ml. The “Plasma concentration on Day 1 at starting CBD dose, Pre-dose, Mean (SD)” value is 0 ng/mL (5 mg/kg/day group (N = 10)), 0 ng/mL (10 mg/kg/day group (N = 8)) and 0 ng/mL (20 mg/kg/day group (N = 9)). The “Plasma concentration on Day 1 at starting CBD dose, […], Mean (SD)” value (5 mg/kg/day group (N = 10)) is given as 37.6 (53.7) ng/ml; the “Plasma concentration on Day 1 at starting CBD dose, […], Mean (SD)” value (10 mg/kg/day group (N = 8)) was 34.4 (32.1) ng/ml; the “Plasma concentration on Day 1 at starting CBD dose, […], Mean (SD)” value (20 mg/kg/day group (N = 9)) was 29.3 (28.5) ng/ml.
